Where “and” joins values, the source holds several entries; their conditions need not be identical. Equal entries are not always repeated. Values belong to the molecule of their own block, whether it stands above or below them.
Tests used:
[1] = target: T1, Rat recombinant α2,3(N)ST (Rattus norvegicus, UniProt Q02734); test: Sialyltransferase assay with cloned α2,3(N)ST; format: biochemical; settings: Table I; acceptor 7.5 mM; 100% = 29520 CPM (Galβ1,4GlcNAcβ-O—Al)
T1 construct: purchased Calbiochem
T1 sequence (Q02734 29-374 limits assumed): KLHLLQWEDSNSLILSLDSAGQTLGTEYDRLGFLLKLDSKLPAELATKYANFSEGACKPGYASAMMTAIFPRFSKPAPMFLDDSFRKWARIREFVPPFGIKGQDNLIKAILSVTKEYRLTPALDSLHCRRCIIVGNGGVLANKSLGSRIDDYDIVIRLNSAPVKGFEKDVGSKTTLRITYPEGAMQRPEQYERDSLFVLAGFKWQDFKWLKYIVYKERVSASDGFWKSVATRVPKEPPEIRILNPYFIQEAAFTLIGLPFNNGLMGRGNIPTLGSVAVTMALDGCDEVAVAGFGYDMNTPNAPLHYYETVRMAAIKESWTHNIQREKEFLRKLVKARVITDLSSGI
How it was run: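 Each rat recombinant sialyltransferase incubated 2 h at 37° C in 0.1M NaCacodylate pH6.0 with acceptor (typically 7.5 mM) and CMP-[9-³H]NeuAc (typically 0.2 μci; 20 μci/nmol), in duplicate, acceptor-free blank subtracted. Radiolabelled product separated on Dowex-1-Formate or Sep-Pak C18 and counted by liquid scintillation.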

[2] = system: α1,2-L-FT of breast tumor BC9400; test: α1,2-L-FT assay, breast tumor extract; format: biochemical, human; settings: 1 mg protein of the tissue extract
Protocol: (§1) Colon tumor tissue (CC9338) and breast tumor tissue (BC9400) were obtained during surgical procedures at Roswell Park Cancer Institute and stored frozen within 1 h at −70° C. The tissues were homogenized at 4° C. with 4 volumes of 0.1M Tris Maleate […] 0.1% NaN3 using kinematica. After adjusting the concentration of Triton X-100 to 2%, these homogenates were mixed in the cold room for 1 h using Speci-Mix (Thermolyne) and then centrifuged at 20,000 g for 1 h at 4° C. The clear fat-free supernatant was stored frozen at −20° C. until use. Aliquots of 10 μL from this extract were used in assays run in duplicates. Glycosyltransferase activity in cell lysate was determined by mixing the lysates with acceptor and radiolabeled donor (monosaccharide) under the reaction conditions detailed below, followed by separation of un-reacted donor from the radioactive product using anionic or hydrophobic chromatography. In all cases, the radioactive content of isolated products was determined by using 3a70 scintillation cocktail (Research Products International, Mount Prospect, Ill.) and a Beckman LS6500 scintillation counter. Controls for each assay contained the reaction mixture with everything except the acceptor. All assays were run in duplicate.
(§2) α1,2, α1,6-, α1,3- and α1,4-fucosyltransferase (FT) assay reactions were carried out for 2 h in a reaction mixture containing 50 mM Hepes buffer (pH 7.5), 5 mM MnCl2, 7 mM ATP, 3 mM NaN3, 3 mM synthetic acceptor or 40 μg of fetuin-based acceptor, 0.05 μCi GDP-[14C]Fuc (290 mCi/mmol) and 10 μl cell extract in a total volume of 20 μl [Chandrasekaran et al., 1996]. Sulfotransferase (Sulfo T) assay reactions took 2 h and required a mixture containing 100 mM Tris-maleate (pH 7.2), 5 mM Mg Acetate, 5 mM ATP, 10 mM NaF, 10 mM BAL, 7.5 mM acceptor, 0.5 μCi of [^35S]PAPS (specific activity 2.4 Ci/mmol) and 10 μl of cell extract in a total volume of 30 μl [Chandrasekaran et al., 2004].
(§3) Dowex-1-C1 or Sep-Pak C18 cartridges were used to isolate radiolabeled product from the reaction mixture. For GalT, GalNAc-T and FT assays, the incubation mixture was diluted with 1 ml water and passed through a 1 ml Dowex-1-C1 column [Chandrasekaran et al., 1996; Chandrasekaran et al., 2001]. The column was washed twice with 1 ml of water. The breakthrough and the water wash contained the [^14C]-galactosylated or [^14C]-fucosylated products formed with neutral acceptors. 3 ml of 0.1M NaCl was used to obtain [^14C]-fucosylated products from sialylated acceptors after water elution. For sialytransferase assays, the radioactive products from benzylglycosides were separated by hydrophobic chromatography on Sep-Pak C18 cartridge (Waters, Milford, Mass.), and elution of the product was done with 3 ml methanol [Palcic et al., 1988]. […]

[3] = system: α1,2-L-FT of colon tumor CC9338; test: α1,2-L-FT assay, colon tumor extract; format: biochemical, human; settings: 1 mg protein of the tissue extract
Protocol: as §1, §2, §3

Compound: CO[C@H]1[C@H](O[C@H]2[C@H](O)[C@@H](NC(C)=O)C(O)O[C@@H]2CO)O[C@H](CO)[C@H](O)[C@@H]1O (some centres unmarked) [2-O-MeGalβ1,4GlcNAc]
Sialyltransferase activity (%) Cloned α2,3(N)ST [1]: 60.0%

Compound: CO[C@H]1[C@H](O[C@H]2[C@H](O)[C@@H](CO)OC(O)[C@@H]2NC(C)=O)O[C@H](CO)[C@H](O)[C@@H]1O (some centres unmarked) [2-O-MeGalβ1,3GlcNAc]
Sialyltransferase activity (%) Cloned α2,3(N)ST [1]: 115.3%

Second part, led by results:

Sialyltransferase activity (%) Cloned α2,3(N)ST [1]: 24.1%
Compound: C=CCO[C@H]1O[C@H](CO)[C@H](O)[C@H](O[C@@H]2O[C@H](CO)[C@H](O)[C@H](O)[C@H]2O)[C@H]1NC(C)=O [Galβ1,3GalNAcα-O—Al]
α1,2-L-FT activity: incorporation of radioactive sugar [2]: 5.5 CPM × 10^−3 | α1,2-L-FT activity: incorporation of radioactive sugar [3]: 36.8 CPM × 10^−3

Sialyltransferase activity (%) Cloned α2,3(N)ST [1]: 3.1%
Compound: CO[C@H]1O[C@H](CO)[C@H](O)[C@H](O[C@@H]2O[C@H](CO)[C@H](O)[C@H](O[C@@H]3O[C@H](C)[C@H](O)[C@H](O)[C@H]3O)[C@H]2NC(C)=O)[C@H]1O [D-Fucβ1,3GalNAcβ1,3Galα-O-Me]
α1,2-L-FT activity: incorporation of radioactive sugar [2]: 16.2 CPM × 10^−3 | α1,2-L-FT activity: incorporation of radioactive sugar [3]: 89.8 CPM × 10^−3

Sialyltransferase activity (%) Cloned α2,3(N)ST [1]: 106.8% and 106.8^20%
Compound: CO[C@H]1O[C@H](CO)[C@H](O)[C@H](O[C@@H]2O[C@H](CO)[C@H](O)[C@H](O[C@@H]3O[C@H](CO)[C@H](O)[C@H](O)[C@H]3O)[C@H]2NC(C)=O)[C@H]1O [Galβ1,3GalNAcβ1,3Galα-O-Me]
α1,2-L-FT activity: incorporation of radioactive sugar [2]: 13.7 CPM × 10^−3 | α1,2-L-FT activity: incorporation of radioactive sugar [3]: 49.1 CPM × 10^−3

— US20100221763A1, “Specific Acceptors for Transferases to Saccharides and Method for Obtaining and Using Same” (Health Research, Inc, priority 2005, published 2010)
